Data as given in paper PMC10709440, “High-throughput ligand profile characterization in novel cell lines expressing seven heterologous insect olfactory receptors for the detection of volatile plant biomarkers” (Scientific Reports, 2023).

Assays:
Drosophila OR71a = target: T1, Drosophila OR71a (Drosophila melanogaster, UniProt Q9VUK5); experiment: cell-based; set-up: GCaMP6 calcium fluorescence in stable HEK293 OR+ORCO lines; peak dF normalised to 50 uM VUAA1 (=1); details: HEK293; relative to 50 uM VUAA1 response; below 0.05 set to 0; read-out: % activation
T1 construct: expressed in transfected cells
T1 sequence (Q9VUK5 1-378): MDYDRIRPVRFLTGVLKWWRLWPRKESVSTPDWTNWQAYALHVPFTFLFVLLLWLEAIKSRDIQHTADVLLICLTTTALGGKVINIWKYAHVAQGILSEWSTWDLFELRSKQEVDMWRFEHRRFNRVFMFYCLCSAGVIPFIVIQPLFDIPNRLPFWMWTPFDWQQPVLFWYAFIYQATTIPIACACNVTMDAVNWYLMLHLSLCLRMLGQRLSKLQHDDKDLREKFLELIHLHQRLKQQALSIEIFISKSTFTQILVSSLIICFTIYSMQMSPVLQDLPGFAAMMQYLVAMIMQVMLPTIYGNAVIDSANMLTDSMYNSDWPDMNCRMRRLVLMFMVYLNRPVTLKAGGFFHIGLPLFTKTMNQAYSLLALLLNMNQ
T1 sequence (Q9VNB5 1-486 partner): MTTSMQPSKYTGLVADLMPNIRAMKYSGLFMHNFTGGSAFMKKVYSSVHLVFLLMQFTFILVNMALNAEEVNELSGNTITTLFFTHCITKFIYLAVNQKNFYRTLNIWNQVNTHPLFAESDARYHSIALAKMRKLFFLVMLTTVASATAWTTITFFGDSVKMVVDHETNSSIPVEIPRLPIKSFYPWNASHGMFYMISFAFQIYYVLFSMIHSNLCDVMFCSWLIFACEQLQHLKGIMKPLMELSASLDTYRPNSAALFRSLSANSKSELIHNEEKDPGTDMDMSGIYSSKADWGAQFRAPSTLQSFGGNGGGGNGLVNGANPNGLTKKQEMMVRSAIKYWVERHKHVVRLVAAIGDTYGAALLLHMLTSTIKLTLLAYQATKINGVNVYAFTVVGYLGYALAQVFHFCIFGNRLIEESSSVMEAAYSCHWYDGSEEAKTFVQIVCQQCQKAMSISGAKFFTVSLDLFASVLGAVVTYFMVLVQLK
Description: (§1) Twelve thousand to 18,000 cells were plated into each well of a black wall, transparent bottom 384-well microplate (Greiner) 48 h or 72 h before the measurements and were simultaneously treated with 1 μg/mL doxycycline. Typically, three columns were filled with one OR expressing cell line, each row was treated with the same compound (three technical replicates for each OR), and each responsive VOC-OR combination was measured at least three times on different days. The plate has 24 columns, thus we could record responses in up to eight different cell lines in each plate. On the day of the experiment, the growth medium was replaced with 20 µL assay buffer/well (140 mM NaCl, 5 mM KCl, 2 mM CaCl2, 1 mM MgCl2, 5 mM HEPES-Na, 20 mM glucose, pH 7.3, 340 mOsm). […] Baseline fluorescence (F0) was recorded for 5 s, after which 7 µL VOC buffer (140 mM NaCl, 5 mM KCl, 2 mM CaCl2, 1 mM MgCl2, 5 mM HEPES-Na, 31 mM glucose, 0.1% DMSO, pH 7.3, 340 mOsm) was injected into each well in one row and the fluorescence response was recorded for an additional 30 s, at a rate of one read/sec. VOC solutions (VOC buffer with 4× concentration of the final measured VOC concentration, 9 µL/well was injected) were measured on the same wells in a second round with the same protocol. Each individual concentration of a specific VOC sample was recorded in three wells for the same cell line on the same microplate. The raw data were exported in xls file format, F0 and FMAX values, and the fluorescence intensity changes (∆F) were calculated in Excel (Microsoft) (Supplementary file Data summary.xlsx) using the following equation: ΔF=FMAX-F0/F0 (see also Fig. 1C). On each plate, we recorded the response of each cell line to 50 µM VUAA1. The average of these ∆F values of each cell line were used to calculate the VUAA1-normalized values for the rest of the plate, by dividing VOC response ∆F values by the average VUAA1 response ∆F value of the corresponding OR cell line. Each VOC-OR combination was measured three times as tec The recorded FMAX, F0, ∆F, VUAA1-normalized ∆F values, as well as the OR name, the name of the tested sample, and the final concentration for each well were copied into supplementary file Data summary.xlsx, that was used to summarize all the plates recorded. Here, the averages of the measurements were calculated for each receptor-VOC-concentration combination. […] Each VOC was measured at 1, 10, and 100 µM final concentration on each receptor. VUAA1-normalized response was calculated as described in methods. Values are averages of at least three biological replicates for responsive combinations and two for the non-responsive combinations. The chemical structures of the strong and medium ligands are shown for each cell line. Heat map: white-green colors correspond to the lowest-highest values measured for each cell line.

Drosophila OR49b = target: T2, Drosophila OR49b (Drosophila melanogaster, UniProt Q9V6H2); experiment: cell-based; set-up: GCaMP6 calcium fluorescence in stable HEK293 OR+ORCO lines; peak dF normalised to 50 uM VUAA1 (=1); details: HEK293; relative to 50 uM VUAA1 response; below 0.05 set to 0; read-out: % activation
T2 construct: expressed in transfected cells
T2 sequence (Q9V6H2 1-375): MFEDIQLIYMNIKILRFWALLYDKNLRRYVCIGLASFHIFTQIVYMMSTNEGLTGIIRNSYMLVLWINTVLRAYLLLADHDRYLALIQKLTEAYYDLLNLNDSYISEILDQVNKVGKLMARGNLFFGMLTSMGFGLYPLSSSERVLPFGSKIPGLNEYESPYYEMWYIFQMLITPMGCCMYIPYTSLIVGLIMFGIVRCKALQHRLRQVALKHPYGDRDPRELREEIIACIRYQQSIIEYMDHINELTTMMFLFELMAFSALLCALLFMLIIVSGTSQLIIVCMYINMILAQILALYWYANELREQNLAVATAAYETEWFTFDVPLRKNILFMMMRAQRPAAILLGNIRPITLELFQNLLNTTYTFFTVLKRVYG
T2 sequence (Q9VNB5 1-486 partner): T1 sequence (Q9VNB5 1-486 partner)
Description: as §1

With `CC/C=C/CCO` [e3-hexenol] as the compound, how does the activity at 1 µM (Drosophila OR71a) read?
Its activity at 1 µM is 0%.

What about the activity at 10 µM (Drosophila OR71a) of the same compound?
Its activity at 10 µM is 0%.

What about the activity at 100 µM (Drosophila OR71a) of the same compound?
Its activity at 100 µM is 0%.

What about the activity at 1 µM (Drosophila OR49b) of the same compound?
The activity at 1 µM was 0%.

And the activity at 10 µM (Drosophila OR49b)?
The activity at 10 µM was 0%.

What about the activity at 100 µM (Drosophila OR49b) of the same compound?
The activity at 100 µM was 7.89%.
